From patent US5057146A (priority 1986, dated 1991)
Where two headings read alike, the source gives them in different places.

Key:
[1] = tested on: Erysiphe graminis hordei; assay: foliar fungal disease control, Erysiphe graminis hordei on barley; assay type: in vivo; conditions: inoculated 24 hours before treatment
Protocol: (§1) The compounds were tested against a variety of foliar fungal diseases of plants. The technique employed was as follows.
(§2) The plants were grown in John Innes Potting Compost (No 1 or 2) in 4 cm diameter minipots. The test compounds were formulated either by bead milling with aqueous Dispersol T or as a solution in acetone or acetone/ethanol which was diluted to the required concentration immediately before use. […] The sprays were applied to maximum retention and the root drenches to a final concentration equivalent to approximately 40 ppm a.i./dry soil. Tween 20, to give a final concentration of 0.05%, was added when the sprays were applied to cereals.
(§3) For most of the tests the compound was applied to the soil (roots) and to the foliage (by spraying) one or two days before the plant was inoculated with the disease. An exception was the test on Erysiphe graminis in which the plants were inoculated 24 hours before treatment. Foliar pathogens were applied by spray as spore suspensions onto the leaves of test plants. After inoculation, the plants were put into an appropriate environment to allow infection to proceed and then incubated until the disease was ready for assessment. The period between inoculation and assessment varied from four to fourteen days according to the disease and environment.
(§4) The disease control was recorded by the following grading: […]

[2] = tested on: Plasmopara viticola; assay: foliar fungal disease control, Plasmopara viticola on vine; assay type: in vivo
Protocol: as §1, §2, §3, §4

[3] = tested on: Phytophthora infestans; assay type: in vivo, Phytophthora infestans (tomato)
[4] = tested on: Venturia inaequalis; assay: foliar fungal disease control, Venturia inaequalis on apple; assay type: in vivo
Protocol: as §1, §2, §3, §4

[5] = tested on: Pyricularia oryzae; assay type: in vivo, Pyricularia oryzae (rice)
[6] = tested on: Puccinia recondita; assay: foliar fungal disease control, Puccinia recondita on wheat; assay type: in vivo
Protocol: as §1, §2, §3, §4

[7] = tested on: Cercospora arachidicola; assay: foliar fungal disease control, Cercospora arachidicola on peanut; assay type: in vivo
Protocol: as §1, §2, §3, §4

[8] = 100 ppm foliar spray plus root drench approx. 40 ppm a.i./dry soil

Compound | disease control grading, Erysiphe graminis hordei (barley) [1, 8] | disease control grading, Plasmopara viticola (vine) [2, 8] | disease control grading, Phytophthora infestans (tomato) [3, 8] | disease control grading, Venturia inaequalis (apple) [4, 8] | disease control grading, Pyricularia oryzae (rice) [5, 8] | disease control grading, Puccinia recondita (wheat) [6, 8] | disease control grading, Cercospora arachidicola (peanut) [7, 8] | also measured
CO/C=C(/C(=O)OC)c1ccccc1Oc1ccc([N+](=O)[O-])cn1 [Compound 133 (Table I), (E)-methyl 2-[2'-(5"-nitropyridin-2"-yloxy)phenyl]-3-methoxyacrylate] | 4 | 4 | 0 (60-100% of disease on untreated plants) | 4 | 4 | 4 |  | 
CO/C=C(/C(=O)OC)c1ccccc1Oc1ccc(C)cn1 [Compound 16 (Table I)] | 4 | 4 | 4 | 4 | 4 | 2 (6-25% of disease on untreated plants) | 4 | 
CO/C=C(/C(=O)OC)c1ccccc1Oc1ncc(C(F)(F)F)cc1[N+](=O)[O-] [Compound 129 (Table I)] | 4 | 0 (60-100% of disease on untreated plants) | 0 (60-100% of disease on untreated plants) | 4 | 0 (60-100% of disease on untreated plants) | 0 (60-100% of disease on untreated plants) | 0 (60-100% of disease on untreated plants) | 
CO/C=C(/C(=O)OC)c1ccccc1Oc1cc(C(F)(F)F)ccn1 [Compound 11 (Table I)] |  |  |  |  |  |  |  | disease control grading, Erysiphe graminis hordei (barley) ([1]; 25 ppm foliar spray only): 4; disease control grading, Plasmopara viticola (vine) ([2]; 25 ppm foliar spray only): 4; disease control grading, Phytophthora infestans (tomato) ([3]; 25 ppm foliar spray only): 4; disease control grading, Venturia inaequalis (apple) ([4]; 25 ppm foliar spray only): 4; disease control grading, Cercospora arachidicola (peanut) ([7]; 25 ppm foliar spray only): 0 (60-100% of disease on untreated plants); disease control grading, Pyricularia oryzae (rice) ([5]; 25 ppm foliar spray only): 2 (6-25% of disease on untreated plants); disease control grading, Puccinia recondita (wheat) ([6]; 25 ppm foliar spray only): 3 (trace-5% of disease on untreated plants)
CO/C=C(/C(=O)OC)c1ccccc1Oc1cc(C(Cl)(Cl)Cl)nc(Cl)n1 [Compound 139 (Table I)] | 0 (60-100% of disease on untreated plants) | 4 | 0 (60-100% of disease on untreated plants) | 0 (60-100% of disease on untreated plants) | 2 (6-25% of disease on untreated plants) | 4 | 4 | 
CO/C=C(/C(=O)OC)c1ccccc1Sc1ccc(Cl)cn1 [Compound 14 (Table II), (E-)-methyl 2-[2'-(5"-chloropyridin-2"-ylthio)phenyl]-3-methoxyacrylate] | 4 | 4 | 0 (60-100% of disease on untreated plants) | 4 | 3 (trace-5% of disease on untreated plants) | 4 | 4 | 
CO/C=C(/C(=O)OC)c1ccccc1Oc1nccc(Cl)n1 [Compound 61 (Table I), (E)-methyl 2-[2'-(4"-chloropyrimidin-2"-yloxy)phenyl]-3-methoxyacrylate] | 4 | 1 (26-59% of disease on untreated plants) | 0 (60-100% of disease on untreated plants) | 4 | 0 (60-100% of disease on untreated plants) | 3 (trace-5% of disease on untreated plants) | 4 | 
CO/C=C(/C(=O)OC)c1ccccc1Oc1ncc(Cl)cn1 [Compound 67 (Table I)] |  |  |  |  |  |  |  | disease control grading, Erysiphe graminis hordei (barley) ([1]; 40 ppm foliar spray only): 2 (6-25% of disease on untreated plants); disease control grading, Plasmopara viticola (vine) ([2]; 40 ppm foliar spray only): 4; disease control grading, Phytophthora infestans (tomato) ([3]; 40 ppm foliar spray only): 0 (60-100% of disease on untreated plants); disease control grading, Venturia inaequalis (apple) ([4]; 40 ppm foliar spray only): 0 (60-100% of disease on untreated plants); disease control grading, Cercospora arachidicola (peanut) ([7]; 40 ppm foliar spray only): 4; disease control grading, Pyricularia oryzae (rice) ([5]; 40 ppm foliar spray only): 0 (60-100% of disease on untreated plants); disease control grading, Puccinia recondita (wheat) ([6]; 40 ppm foliar spray only): 3 (trace-5% of disease on untreated plants)
CO/C=C(/C(=O)OC)c1ccccc1Oc1cccc(C)n1 [Compound 21 (Table I)] | 4 | 4 | 3 (trace-5% of disease on untreated plants) | 4 | 4 | 3 (trace-5% of disease on untreated plants) | 4 | 
CO/C=C(/C(=O)OC)c1ccccc1Oc1nc(F)cc(F)n1 [Compound 137 (Table I)] | 0 (60-100% of disease on untreated plants) | 0 (60-100% of disease on untreated plants) | 0 (60-100% of disease on untreated plants) | 4 | 0 (60-100% of disease on untreated plants) | 2 (6-25% of disease on untreated plants) | 0 (60-100% of disease on untreated plants) | 
CO/C=C(/C(=O)OC)c1ccccc1[S+]([O-])c1ccc(Br)cn1 (stereo not shown) [Compound 1 (Table III), (E)--methyl 2-(2'-(5"-bromopyridin-2"-ylsulphinyl)phenyl]-3-methoxyacrylate] |  |  |  |  |  |  |  | disease control grading, Erysiphe graminis hordei (barley) ([1]; 25 ppm foliar spray only): 0 (60-100% of disease on untreated plants); disease control grading, Plasmopara viticola (vine) ([2]; 25 ppm foliar spray only): 0 (60-100% of disease on untreated plants); disease control grading, Phytophthora infestans (tomato) ([3]; 25 ppm foliar spray only): 0 (60-100% of disease on untreated plants); disease control grading, Venturia inaequalis (apple) ([4]; 25 ppm foliar spray only): 3 (trace-5% of disease on untreated plants); disease control grading, Cercospora arachidicola (peanut) ([7]; 25 ppm foliar spray only): 0 (60-100% of disease on untreated plants); disease control grading, Pyricularia oryzae (rice) ([5]; 25 ppm foliar spray only): 0 (60-100% of disease on untreated plants); disease control grading, Puccinia recondita (wheat) ([6]; 25 ppm foliar spray only): 0 (60-100% of disease on untreated plants)
CO/C=C(/C(=O)OC)c1ccccc1S(=O)(=O)c1ccc(Br)cn1 [Compound 2 (Table III), (E)-meth-yl 2-(2'-(5"-bromopyridin-2"-ylsulphonyl)phenyl]-3-methoxyacrylate] | 0 (60-100% of disease on untreated plants) | 0 (60-100% of disease on untreated plants) | 0 (60-100% of disease on untreated plants) | 3 (trace-5% of disease on untreated plants) | 0 (60-100% of disease on untreated plants) | 3 (trace-5% of disease on untreated plants) | 0 (60-100% of disease on untreated plants) | 
CO/C=C(/C(=O)OC)c1ccccc1Oc1cc(Cl)nc(Cl)n1 [Compound 140 (Table I)] | 0 (60-100% of disease on untreated plants) | 4 | 0 (60-100% of disease on untreated plants) | 0 (60-100% of disease on untreated plants) | 0 (60-100% of disease on untreated plants) | 2 (6-25% of disease on untreated plants) | 0 (60-100% of disease on untreated plants) | 
CO/C=C(/C(=O)OC)c1ccccc1Oc1cc(F)nc(Cl)c1 [Compound 167 (Table I)] | 4 | 4 |  | 4 | 3 (trace-5% of disease on untreated plants) | 4 | 0 (60-100% of disease on untreated plants) | 
CO/C=C(/C(=O)OC)c1ccccc1Oc1cccc(C(F)(F)F)n1 [Compound 22 (Table I)] | 4 | 4 | 3 (trace-5% of disease on untreated plants) | 4 | 4 | 4 | 4 | 
